Reference: ChEMBL document CHEMBL5576122, “Discovery of Novel Azaphenothiazine Derivatives to Suppress Endometrial Cancer by Targeting GRP75 to Impair Its Interaction with IP3R and Mitochondrial Ca2+ Homeostasis” (J Med Chem, 2024)

Key:
Ishikawa = assay: Inhibition of cell proliferation in human Ishikawa cells incubated for 48 hrs by CCK-8 assay
KLE = assay: Inhibition of cell proliferation in human KLE cells incubated for 48 hrs by CCK-8 assay
in vitro [1] = settings: mouse, liver microsomes
in vitro [2] = settings: mouse, liver microsomes; remark: listed apart in the source
Description: Metabolic stability in mouse liver microsomes assessed as half life

in vitro [3] = settings: plasma
Description: Protein binding in plasma (unknown origin)

in vitro [4] = settings: human, liver microsomes
in vitro [5] = settings: human, liver microsomes; remark: listed apart in the source
CYP2C19 = CYP2C19 (Homo sapiens, UniProt P33261); assay: Inhibition of CYP2C19 (unknown origin) at 10 uM relative to control; type: ADME
CYP1A2 = target: T1, CYP1A2 (Homo sapiens, UniProt P05177); assay: Inhibition of CYP1A2 (unknown origin) at 10 uM relative to control; type: ADME
T1 sequence (P05177 whole entry): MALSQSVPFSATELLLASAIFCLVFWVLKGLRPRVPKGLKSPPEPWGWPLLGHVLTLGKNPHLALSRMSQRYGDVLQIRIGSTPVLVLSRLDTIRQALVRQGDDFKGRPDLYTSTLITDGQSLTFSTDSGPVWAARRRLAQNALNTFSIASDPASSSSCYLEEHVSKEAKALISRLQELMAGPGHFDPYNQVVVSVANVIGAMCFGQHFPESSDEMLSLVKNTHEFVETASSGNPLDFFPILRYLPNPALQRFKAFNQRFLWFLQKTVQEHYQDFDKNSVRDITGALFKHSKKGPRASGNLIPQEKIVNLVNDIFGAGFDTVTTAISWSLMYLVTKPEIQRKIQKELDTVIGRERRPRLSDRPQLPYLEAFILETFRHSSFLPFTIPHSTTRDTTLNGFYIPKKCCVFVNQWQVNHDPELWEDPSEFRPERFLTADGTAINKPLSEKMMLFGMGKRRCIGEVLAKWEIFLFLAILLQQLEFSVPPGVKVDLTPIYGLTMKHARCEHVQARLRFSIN

CYP3A4 = CYP3A4 (Homo sapiens, UniProt P08684); assay: Inhibition of CYP3A4 (unknown origin) at 10 uM relative to control; type: ADME
CYP2D6 = CYP2D6 (Homo sapiens, UniProt P10635); assay: Inhibition of CYP2D6 (unknown origin) at 10 uM relative to control; type: ADME
CYP2C9 = CYP2C9 (Homo sapiens, UniProt P11712); assay: Inhibition of CYP2C9 (unknown origin) at 10 uM relative to control; type: ADME
Sequence of CYP2C9 (P11712 whole entry): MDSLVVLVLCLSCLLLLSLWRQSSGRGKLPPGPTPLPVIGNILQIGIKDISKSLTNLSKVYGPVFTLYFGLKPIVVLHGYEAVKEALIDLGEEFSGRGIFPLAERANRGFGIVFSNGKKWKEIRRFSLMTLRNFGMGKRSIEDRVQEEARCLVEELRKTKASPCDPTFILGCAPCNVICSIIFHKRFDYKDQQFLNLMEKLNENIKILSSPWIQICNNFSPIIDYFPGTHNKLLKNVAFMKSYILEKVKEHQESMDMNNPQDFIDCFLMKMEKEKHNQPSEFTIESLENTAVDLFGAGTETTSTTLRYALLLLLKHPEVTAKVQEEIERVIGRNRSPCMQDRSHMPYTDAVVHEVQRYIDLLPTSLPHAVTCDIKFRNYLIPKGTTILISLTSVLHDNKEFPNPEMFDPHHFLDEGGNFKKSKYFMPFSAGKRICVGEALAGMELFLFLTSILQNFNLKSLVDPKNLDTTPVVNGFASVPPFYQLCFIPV

Sequence of CYP3A4 (P08684 whole entry): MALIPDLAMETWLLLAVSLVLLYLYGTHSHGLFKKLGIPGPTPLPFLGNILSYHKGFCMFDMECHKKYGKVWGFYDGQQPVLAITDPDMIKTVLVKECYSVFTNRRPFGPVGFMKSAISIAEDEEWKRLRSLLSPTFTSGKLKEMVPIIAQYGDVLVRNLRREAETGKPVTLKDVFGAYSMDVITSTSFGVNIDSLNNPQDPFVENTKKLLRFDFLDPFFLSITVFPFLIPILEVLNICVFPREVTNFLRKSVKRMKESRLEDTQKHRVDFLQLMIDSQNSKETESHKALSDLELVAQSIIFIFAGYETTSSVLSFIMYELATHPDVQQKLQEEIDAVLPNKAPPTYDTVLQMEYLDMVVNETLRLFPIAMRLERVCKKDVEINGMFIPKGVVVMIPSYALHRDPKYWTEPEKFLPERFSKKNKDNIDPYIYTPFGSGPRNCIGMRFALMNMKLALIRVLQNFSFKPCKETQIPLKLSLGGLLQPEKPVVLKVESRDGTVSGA
Sequence of CYP2C19 (P33261 whole entry): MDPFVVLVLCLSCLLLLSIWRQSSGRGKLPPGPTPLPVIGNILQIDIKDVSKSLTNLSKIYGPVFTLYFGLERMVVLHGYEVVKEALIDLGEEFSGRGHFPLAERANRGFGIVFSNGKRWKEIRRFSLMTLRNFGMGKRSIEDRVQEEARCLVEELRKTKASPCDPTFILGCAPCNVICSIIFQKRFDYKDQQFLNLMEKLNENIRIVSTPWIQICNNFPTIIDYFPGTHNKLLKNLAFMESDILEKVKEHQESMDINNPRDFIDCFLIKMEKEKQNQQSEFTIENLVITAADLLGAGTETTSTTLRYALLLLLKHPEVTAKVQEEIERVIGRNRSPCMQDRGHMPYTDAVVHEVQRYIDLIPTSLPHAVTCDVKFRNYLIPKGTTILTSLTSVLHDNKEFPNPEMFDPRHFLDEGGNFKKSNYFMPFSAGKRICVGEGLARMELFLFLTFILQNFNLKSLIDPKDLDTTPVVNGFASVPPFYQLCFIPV
Sequence of CYP2D6 (P10635 whole entry): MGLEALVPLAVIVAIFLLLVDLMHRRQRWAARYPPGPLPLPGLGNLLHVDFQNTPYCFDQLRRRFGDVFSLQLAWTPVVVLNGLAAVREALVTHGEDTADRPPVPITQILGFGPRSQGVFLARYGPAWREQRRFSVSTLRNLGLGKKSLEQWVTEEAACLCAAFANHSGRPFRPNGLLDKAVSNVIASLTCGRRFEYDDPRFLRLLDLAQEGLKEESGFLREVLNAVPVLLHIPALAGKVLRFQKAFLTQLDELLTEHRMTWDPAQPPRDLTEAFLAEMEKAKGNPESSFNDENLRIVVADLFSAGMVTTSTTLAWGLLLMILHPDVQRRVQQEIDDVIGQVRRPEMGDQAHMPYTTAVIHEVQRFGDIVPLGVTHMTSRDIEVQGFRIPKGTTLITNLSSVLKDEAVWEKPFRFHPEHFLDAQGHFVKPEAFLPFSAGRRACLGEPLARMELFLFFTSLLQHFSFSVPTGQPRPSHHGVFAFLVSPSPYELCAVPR

| SMILES | IC50 (Ishikawa) | IC50 (KLE) | also measured |
| --- | --- | --- | --- |
| Clc1ccc2c(c1)N(CCCCCN1CCC3(CC1)CCN(Cc1ccccn1)CC3)c1ncccc1S2 | 12.8 µM |  |  |
| CC(C)(C)OC(=O)N1CCC2(CCN(CCCCCN3c4cc(Cl)ccc4Sc4cccnc43)CC2)C1 | 735 µM | 10.7 µM |  |
| CC(C)(C)OC(=O)N1CCCC12CCN(CCCCCN1c3cc(Cl)ccc3Sc3cccnc31)CC2 | 7.4 µM | 8.52 µM |  |
| CC(C)(C)OC(=O)N1CCC2(CCN(CCCCCN3c4ccccc4Sc4cccnc43)CC2)CC1 | 6 µM | 9.99 µM |  |
| CC(C)(C)OC(=O)N1CCC2(CC1)CN(CCCCCN1c3cc(Cl)ccc3Sc3cccnc31)CCO2 | 45.4 µM |  |  |
| O=C1CC2(CCN(CCCCCN3c4cc(Cl)ccc4Sc4cccnc43)CC2)C(=O)N1 | 14.5 µM |  |  |
| CC(C)(C)OC(=O)N1CCC2(CCCN2CCCCCN2c3cc(Cl)ccc3Sc3cccnc32)CC1 | 13.3 µM |  |  |
| CC(C)(C)OC(=O)N1CC2(CN(CCCCCN3c4cc(Cl)ccc4Sc4cccnc43)C2)C1 | 12.2 µM |  |  |
| Clc1ccc2c(c1)N(CCCCCN1CCC3(CCNCC3)CC1)c1ncccc1S2 | 1.7 µM | 2.88 µM |  |
| CC(C)(C)OC(=O)N1CCC2(CC1)CN(CCCCCN1c3cc(Cl)ccc3Sc3cccnc31)C2 | 8.23 µM |  |  |
| Clc1ccc(CN2CCC3(CCN(CCCCCN4c5cc(Cl)ccc5Sc5cccnc54)CC3)CC2)cc1 | 2.57 µM | 3.49 µM |  |
| CC(C)(C)OC(=O)N1CC2CC1CN2CCCCCN1c2cc(Cl)ccc2Sc2cccnc21 (centres undefined) | 21.3 µM |  |  |
| CC(=O)N1CCC2(CCN(CCCCCN3c4cc(Cl)ccc4Sc4cccnc43)CC2)CC1 | 10.4 µM |  |  |
| CC(C)(C)OC(=O)N1CCC2(CCN(CCCCN3c4cc(Cl)ccc4Sc4cccnc43)CC2)CC1 | 11.1 µM |  |  |
| CC(C)(C)OC(=O)N1CCC2(CCN(CCCCCCN3c4cc(Cl)ccc4Sc4cccnc43)CC2)CC1 | 13.3 µM |  |  |
| CC(C)(C)OC(=O)N1CCC2(CCN(CCCCCN3c4cc(Cl)ccc4Sc4cccnc43)CC2)CC1 | 5.37 µM | 9.55 µM |  |
| CC(C)(C)OC(=O)N1CCC2(CCN(CCCCCN3c4cc(C(F)(F)F)ccc4Sc4cccnc43)CC2)CC1 | 6.75 µM | 14.5 µM |  |
| CC(C)(C)OC(=O)N1C2CC1CN(CCCCCN1c3cc(Cl)ccc3Sc3cccnc31)C2 | 53.4 µM |  |  |

| SMILES | IC50 (Ishikawa) | IC50 (KLE) | also measured |
| --- | --- | --- | --- |
| CN1CCC2(CC1)CCN(CCCCCN1c3cc(OCc4ccccc4)ccc3Sc3cccnc31)CC2 | 14.6 µM |  |  |
| CCN(CC)c1ccc2c(c1)N(CCCCCN1CCC3(CCN(C)CC3)CC1)c1ncccc1S2 | 17.5 µM |  |  |
| CC(C)(C)OC(=O)N1C[C@]2(C)C[C@@]1(C)CN2CCCCCN1c2cc(Cl)ccc2Sc2cccnc21 | 18.7 µM |  |  |
| O=C1CC2(CCN(Cc3ccccc3)CC2)CC(=O)N1CCCCCN1c2cc(Cl)ccc2Sc2cccnc21 | 27.5 µM |  |  |
| CC(C)(C)OC(=O)N1CCC2(CC1)CCN2CCCCCN1c2cc(Cl)ccc2Sc2cccnc21 | 6.13 µM | 6.23 µM |  |
| CC(C)(C)OC(=O)N1CCC2(CCN(CCCCCN3c4cc(Cl)ccc4Sc4cccnc43)C2)CC1 | 11.6 µM |  |  |
| CC(C)(C)OC(=O)N1CCC2(CCCN(CCCCCN3c4cc(Cl)ccc4Sc4cccnc43)C2)CC1 | 47.5 µM |  |  |
| CN(C)CCCN1c2ccccc2Sc2ccc(Cl)cc21.Cl [CHLORPROMAZINE HYDROCHLORIDE] | 22 µM | 35 µM | CLint scaled (in vitro [1]): 43.4 L/h/kg; half-life (in vitro [2]): 7.6 min; fraction unbound (in vitro [3]): 0.0156; CLint scaled (in vitro [4]): 3.14 L/h/kg; half-life (in vitro [5]): 23.8 min |
| COc1ccc2c(c1)N(CCCCCN1CCC3(CC1)CCN(C(=O)OC(C)(C)C)CC3)c1ncccc1S2 | 3.95 µM | 8.06 µM |  |
| CC(C)(C)OC(=O)N1CC2(CCN(CCCCCN3c4cc(Cl)ccc4Sc4cccnc43)C2)C1 | 14.4 µM |  |  |
| CCCN1CCC2(CC1)CCN(CCCCCN1c3cc(Cl)ccc3Sc3cccnc31)CC2 | 1.41 µM | 3.53 µM |  |
| CN1CCC2(CC1)CCN(CCCCCN1c3cc(Cl)ccc3Sc3cccnc31)CC2 | 1.21 µM | 3.17 µM |  |
| CC(C)(C)OC(=O)N1CC2(CCN(CCCCCN3c4cc(Cl)ccc4Sc4cccnc43)CC2)C1 | 11.4 µM |  |  |
| Clc1ccc2c(c1)N(CCCCCN1CCC3(CC1)CCN(Cc1ccccc1)CC3)c1ncccc1S2 | 2.4 µM | 3.96 µM |  |
| C#CCN1CCC2(CC1)CCN(CCCCCN1c3cc(Cl)ccc3Sc3cccnc31)CC2 | 4.58 µM | 8.31 µM |  |
| CC(C)(C)OC(=O)N1CCC2(CCN(CCCCCN3c4cc(Cl)ccc4Sc4cccnc43)C2)C1 (centres undefined) | 10.9 µM |  |  |
| CC(C)(C)OC(=O)N1CCC2(CN(CCCCCN3c4cc(Cl)ccc4Sc4cccnc43)C2)C1 | 12.7 µM |  |  |
| COc1ccc2c(c1)N(CCCCCN1CCC3(CCN(C)CC3)CC1)c1ncccc1S2 |  |  | inhibition at 10 µM (CYP2C19): 7.5%; inhibition at 10 µM (CYP1A2): 0%; inhibition at 10 µM (CYP3A4): 20%; inhibition at 10 µM (CYP2D6): 14.8%; inhibition at 10 µM (CYP2C9): 7% |
